Results reported in patent US8840939B2, “Vigna unguiculata seed extract and compositions containing same” (Laboratoires Expanscience, priority 2009, dated 2014).

Assays:
[1] = system: IL1α; experiment: Release of IL1α by PMA-stimulated keratinocytes (ELISA); type: cell-based, Human; details: 10^−7 M dexamethasone, NCTC2544 keratinocytes, 0.1 μg/ml PMA 24 hours
Experimental: (§1) The anti-inflammatory effect of Vigna hydrolysate was evaluated by measuring the cytokines (IL1α, IL8) produced by keratinocytes in response to stimulation by PMA.
(§2) Human keratinocytes (NCTC2544 cell line) were preincubated for 24 hours with 0.05% (w/v) Vigna hydrolysate or the reference molecule (10^−7 M dexamethasone). The cells were then treated with 0.1 μg/ml PMA, always in the presence of Vigna hydrolysate or dexamethasone, for 24 hours. The quantities of IL1α and IL8 released in the culture medium were evaluated by ELISA.
(§3) The results were analyzed statistically by one-way analysis of variance (ANOVA) followed by Tukey's test:
(§4) The percentage of inhibition in relation to the stimulated control (PMA) was calculated.

[2] = system: IL8; experiment: Release of IL8 by PMA-stimulated keratinocytes (ELISA); type: cell-based, Human; details: 10^−7 M dexamethasone, NCTC2544 keratinocytes, 0.1 μg/ml PMA 24 hours
Experimental: as §1, §2, §3, §4

[3] = system: elastin; experiment: Gene expression of elastin by fibroblasts (RT-PCR); type: cell-based; details: 5 ng/ml TGFβ1, normal human fibroblasts, 24 hours
Experimental: (§5) The effect of Vigna hydrolysate on the modulation of the extracellular matrix of the dermis was evaluated on a dermal fibroblast model wherein the gene expression of elastin and MMP1 was studied.
(§6) Normal human fibroblasts were treated for 24 hours with 0.01% and 0.05% (w/v) Vigna hydrolysate or with 5 ng/ml TGFβ1 (reference). The gene expression of elastin and MMP1 was analyzed by quantitative real-time RT-PCR.
(§7) The results were analyzed statistically by one-way analysis of variance (ANOVA) followed by Dunnett's test:
(§8) The level of gene expression was expressed in relative quantity (RQ) and the effect of the treatment in relation to the control cells in percentage of increase or inhibition.

[4] = system: MMP1; experiment: Gene expression of MMP1 by fibroblasts (RT-PCR); type: cell-based; details: 5 ng/ml TGFβ1, normal human fibroblasts, 24 hours
Experimental: as §5, §6, §7, §8

Compound | IL1α [1] | inhibition at 0.1 µM ([1]; Homo sapiens, NCTC-2544, read-out: IL1α, percentage of inhibition in relation to the stimulated control (PMA) (converted)) | IL8 [2] | inhibition at 0.1 µM ([2]; Homo sapiens, NCTC-2544, read-out: IL8, percentage of inhibition in relation to the stimulated control (PMA) (converted)) | ELASTIN gene expression, percentage of increase in relation to the control cells [3] | ELASTIN gene expression, relative quantity (RQ) [3] | MMP1 gene expression, percentage of inhibition in relation to the control cells [4] | MMP1 gene expression, relative quantity (RQ) [4]
C[C@@H]1C[C@H]2[C@@H]3CCC4=CC(=O)C=C[C@]4(C)[C@@]3(F)[C@@H](O)C[C@]2(C)[C@@]1(O)C(=O)CO [dexamethasone] | 14.0 ± 3.5 pg/mL | 82% | 6.0 ± 0.2 ng/mL | 81% | – | – | – | –
TGFβ1: 5 ng/ml TGFβ1 (reference) | – | – | – | – | +559% | 6.59 | −88% | 0.12
